# Measured values reported in patent US6872805B2 (Bristol-Myers Squibb Company, priority 2000, dated 2005).
# Experiments:
# [1] = target: NS3/4A BMS strain (Hepatitis C virus genotype 1a, UniProt P27958, C1454S/C1711G); assay: Recombinant HCV NS3/4A protease complex FRET peptide assay, BMS strain; format: biochemical, HCV genotype 1a; conditions: enzyme assay
# Description: The purpose of this in vitro assay was to measure the inhibition of HCV NS3 protease complexes, derived from the BMS, H77C or J416S strains, as described below, by compounds of the present invention. This assay provides an indication of how effective compounds of the present invention would be in inhibiting HCV […] proteolytic activity.
# Serum from an HCV-infected patient was obtained from Dr. T. Wright, San Francisco Hospital. An engineered full-length cDNA template of the HCV genome (BMS strain) was constructed from DNA fragments obtained by reverse transcription-PCR (RT-PCR) of serum RNA and using primers selected on the basis of homology between other genotype 1a strains. From the determination of the entire genome sequence, a genotype 1a was assigned to the HCV isolate according to the classification of Simmonds et al. (See P Simmonds, K A Rose, S Graham, S W Chan, F McOmish, B C Dow, E A Follett, P L Yap and H Marsden, J. Clin. Microbiol., 31(6), 1493-1503 (1993)). […] The infectious clones, H77C (1a genotype) and J4L6S (1b genotype) were obtained from R. Purcell (NIH) and the sequences are published in genebank (AAB67036, see Yanagi, M., Purcell, R. H., Emerson, S. U. and Bukh, J. Proc. Natl. Acad. Sci. U.S.A. 94(16),8738-8743 (1997); AF054247, see Yanagi, M., St Claire, M., Shapiro, M., Emerson, S. U., Purcell, R. H. and Bukh, J, Virology 244 (1), 161-172. (1998)). […]
# [2] = In vivo rat PK studies (systemic and liver exposure); parameters: species or system male Sprague Dawley rats; conditions: dosed orally or intravenously
# Description: All animal experimentation was conducted in accordance with USDA guidelines under the Animal Welfare Act. To assess the systemic and liver exposure, representative compounds were orally (gastric intubation) or intravenously (bolus or infusion) administered to male Sprague Dawley rats bearing indwelling jugular vein cannulae. At pre-determined times after dosing, serial blood samples were taken from the implanted cannulae. Plasma was separated from EDTA-treated blood by centrifugation and stored at −20° C. until analysis. The liver was removed from rats after carbon dioxide asphyxiation, rinsed with saline and blotted dry. For analysis, a 2 g portion of the outer part of one lobe was minced and homogenized with 4 ml of 80% acetonitrile/HBSS buffer. After centrifugation, the supernatant was kept at −20° C. until analysis. Quantitation of represenatative compounds in plasma and liver homogenate samples was performed by a specific LC/MS/MS method optimized for each compound.
# Sequence of NS3/4A BMS strain (P27958 1027-1711, stated change not applied): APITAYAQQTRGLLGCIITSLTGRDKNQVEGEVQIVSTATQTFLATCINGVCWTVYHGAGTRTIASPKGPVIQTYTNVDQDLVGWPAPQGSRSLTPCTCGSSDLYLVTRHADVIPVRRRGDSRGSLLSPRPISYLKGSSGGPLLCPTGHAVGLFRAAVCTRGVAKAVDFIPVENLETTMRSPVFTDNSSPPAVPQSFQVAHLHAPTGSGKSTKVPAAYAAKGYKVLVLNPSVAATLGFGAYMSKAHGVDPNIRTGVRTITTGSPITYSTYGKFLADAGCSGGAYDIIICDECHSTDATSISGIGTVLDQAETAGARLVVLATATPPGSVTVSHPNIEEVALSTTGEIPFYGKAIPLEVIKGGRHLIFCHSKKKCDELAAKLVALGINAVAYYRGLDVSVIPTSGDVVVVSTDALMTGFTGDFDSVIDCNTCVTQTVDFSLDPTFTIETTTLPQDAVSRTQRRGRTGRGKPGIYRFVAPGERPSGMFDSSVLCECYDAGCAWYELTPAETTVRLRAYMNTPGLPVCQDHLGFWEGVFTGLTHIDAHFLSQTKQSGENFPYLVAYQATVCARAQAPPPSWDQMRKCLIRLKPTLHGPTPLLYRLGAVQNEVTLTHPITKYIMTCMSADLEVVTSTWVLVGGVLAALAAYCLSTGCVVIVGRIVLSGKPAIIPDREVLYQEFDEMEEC
# Sequence of NS3/4A BMS strain (P27958 1027-1711, stated change not applied): as above
smiles,measurement,setting,value
C=CC1C[C@]1(NC(=O)[C@@H]1C[C@@H](Oc2cc(-c3ccccc3)nc3cc(OC)ccc23)CN1C(=O)C(NC(=O)OC(C)(C)C)C(C)(C)C)C(=O)NS(=O)(=O)c1ccc(NC(C)=O)cc1 (some centres unmarked) [Compound 58],IC50,[1],17 nM
same,viral target exposure,[2],viral target exposure was achieved
